The record followed here is ChEMBL document CHEMBL5390256, “Sticklac-Derived Natural Compounds Inhibiting RNase H Activity of HIV-1 Reverse Transcriptase” (J Nat Prod, 2023).

Activity calls are given as the source filed them. The calls are words filed in the database; no cut-off is given here.

For data set [1], the target named is T1, Human immunodeficiency virus type 1 reverse transcriptase (Human immunodeficiency virus 1, UniProt Q72547). Nature of the data set: Inhibition of HIV-1 RNase H using 5'-GAUCUGAGCCUGGGAGCU-3'-FAM RNA/BHQ-5'-AGCTCCCAGGCTCAGATC-3' DNA as substrate measured after 60 mins by FRET analysis.
Data set [2] has as its target Human immunodeficiency virus type 1 reverse transcriptase (Human immunodeficiency virus 1) (UniProt Q72547). Description: Inhibition of HIV-1 RNase H using 5'-GAUCUGAGCCUGGGAGCU-3'-FAM RNA/BHQ-5'-AGCTCCCAGGCTCAGATC-3' DNA as substrate at 50 uM measured after 60 mins by FRET analysis.
Data set [3] deals with T1, Human immunodeficiency virus type 1 reverse transcriptase. Nature of the data set: Inhibition of HIV-1 RNase H activity.
Data set [4] addresses DNA (cytosine-5)-methyltransferase 1 (Homo sapiens, UniProt P26358). Nature of the data set: Competitive inhibition of DNMT1 (unknown origin).
Data set [5] can be described thus: Cytotoxicity activity against human R5-MaRBLE reporter cells assessed as effect on Renilla luciferase activity measured after 7 days by Dual-Glo luciferase reporter assay. It is filed as toxicity, cell-based. To be noted: time 7 day.
Data set [6] relates to Human immunodeficiency virus 1. Nature of the data set: Antiviral activity against HIV-1 NL4-3 infected in human R5-MaRBLE reporter cells assessed as inhibition of viral replication measured after 7 days by Dual-Glo luciferase reporter assay. It is filed as functional, organism-based. On the technique in general: Reporter assays use an easily measured gene product as a stand-in for the process of interest.

Sequence of DNA (cytosine-5)-methyltransferase 1 (P26358 whole entry): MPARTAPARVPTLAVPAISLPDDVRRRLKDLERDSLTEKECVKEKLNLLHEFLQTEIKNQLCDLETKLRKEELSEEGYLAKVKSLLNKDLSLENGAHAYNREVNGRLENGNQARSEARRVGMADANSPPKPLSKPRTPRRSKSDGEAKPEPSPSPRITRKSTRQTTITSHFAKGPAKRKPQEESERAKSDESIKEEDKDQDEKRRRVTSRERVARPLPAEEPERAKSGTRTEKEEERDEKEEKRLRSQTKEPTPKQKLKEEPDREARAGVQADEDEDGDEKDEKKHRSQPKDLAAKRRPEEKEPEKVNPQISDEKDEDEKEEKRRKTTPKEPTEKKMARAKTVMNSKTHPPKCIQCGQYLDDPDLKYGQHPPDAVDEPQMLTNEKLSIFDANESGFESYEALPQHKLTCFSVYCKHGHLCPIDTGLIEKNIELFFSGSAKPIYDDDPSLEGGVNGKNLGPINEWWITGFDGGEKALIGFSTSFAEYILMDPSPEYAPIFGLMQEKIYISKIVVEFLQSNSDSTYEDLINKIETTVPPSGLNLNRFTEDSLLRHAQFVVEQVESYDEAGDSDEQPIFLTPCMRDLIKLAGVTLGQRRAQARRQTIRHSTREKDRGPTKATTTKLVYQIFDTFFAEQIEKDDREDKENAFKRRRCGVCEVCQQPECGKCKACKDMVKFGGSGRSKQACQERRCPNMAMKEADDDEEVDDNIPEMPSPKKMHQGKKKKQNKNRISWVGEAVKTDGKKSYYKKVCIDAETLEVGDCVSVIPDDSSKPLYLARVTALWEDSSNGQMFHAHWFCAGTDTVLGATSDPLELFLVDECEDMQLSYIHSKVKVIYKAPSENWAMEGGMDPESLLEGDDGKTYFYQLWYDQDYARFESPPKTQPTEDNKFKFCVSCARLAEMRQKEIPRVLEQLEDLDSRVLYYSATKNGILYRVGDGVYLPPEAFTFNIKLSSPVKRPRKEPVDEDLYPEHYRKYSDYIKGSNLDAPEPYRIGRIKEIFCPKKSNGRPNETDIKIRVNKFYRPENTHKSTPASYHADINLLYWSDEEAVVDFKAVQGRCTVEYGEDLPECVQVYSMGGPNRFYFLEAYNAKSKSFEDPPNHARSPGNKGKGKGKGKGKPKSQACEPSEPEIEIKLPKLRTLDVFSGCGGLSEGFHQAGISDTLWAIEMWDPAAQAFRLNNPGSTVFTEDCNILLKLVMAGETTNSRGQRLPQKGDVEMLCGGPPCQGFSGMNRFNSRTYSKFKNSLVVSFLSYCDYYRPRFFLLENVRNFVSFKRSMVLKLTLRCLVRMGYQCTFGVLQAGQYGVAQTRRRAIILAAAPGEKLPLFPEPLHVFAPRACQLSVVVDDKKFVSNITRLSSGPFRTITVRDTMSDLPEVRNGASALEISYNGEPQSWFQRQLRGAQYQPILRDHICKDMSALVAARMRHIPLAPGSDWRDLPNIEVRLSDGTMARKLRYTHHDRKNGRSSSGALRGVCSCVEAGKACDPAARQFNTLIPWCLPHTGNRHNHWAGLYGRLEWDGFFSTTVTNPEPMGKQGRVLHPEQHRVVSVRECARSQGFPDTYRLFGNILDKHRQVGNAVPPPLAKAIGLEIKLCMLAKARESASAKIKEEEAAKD

For the compound `NCCc1ccc(O)c(-c2c(O)c(O)c3c(c2O)C(=O)c2c(cc(O)c(C(=O)O)c2C(=O)O)C3=O)c1`, inhibition in data set [1] was half-maximal at 44 µM (IC50). For the same compound, the inhibition entry in data set [2] is “Active”.

In turn, `O=C(O)c1cc(O)c2c(c1)[C@@H]([C@@H]1c3cc(C(=O)O)cc(O)c3C(=O)c3c(O[C@@H]4O[C@H](CO)[C@@H](O)[C@H](O)[C@H]4O)cccc31)c1cccc(O[C@H]3O[C@@H](CO)[C@H](O)[C@@H](O)[C@@H]3O)c1C2=O` gave an IC50 in data set [3] of 2 µM.

The compound `CC(=O)NCCc1ccc(O)c(-c2c(O)c(O)c3c(c2O)C(=O)c2c(cc(O)c(C(=O)O)c2C(=O)O)C3=O)c1` [LACCACID ACID A] had a Ki in data set [4] of 0.3 µM. In data set [1], this compound yielded an IC50 of 64 µM. Further, the inhibition entry in data set [2] was “Active”. Besides, the CC50 at 168 h in data set [5] was 39.5 µM. For the same compound, in data set [6] (r5-marble), the EC50 result was “Not Active”.

In data set [1], `N[C@@H](Cc1ccc(O)c(-c2c(O)c(O)c3c(c2O)C(=O)c2c(cc(O)c(C(=O)O)c2C(=O)O)C3=O)c1)C(=O)O` gave an IC50 of 8.1 µM. Besides, the inhibition entry in data set [2] was “Active”. Besides, the CC50 at 168 h in data set [5] came to 43.9 µM. The EC50 in data set [6] (Human immunodeficiency virus 1, NL4-3, R5-MaRBLE, 168 h, read-out: EC50) was 19.2 µM.

The compound `O=C(O)c1cc(O)c2c(c1)[C@@H]([C@H]1c3cc(C(=O)O)cc(O)c3C(=O)c3c(O[C@H]4O[C@@H](CO)[C@H](O)[C@@H](O)[C@@H]4O)cccc31)c1cccc(O[C@@H]3O[C@H](CO)[C@@H](O)[C@H](O)[C@H]3O)c1C2=O` returned an IC50 in data set [3] of 2 µM.

Broadly, the IC50 is the midpoint of a concentration-inhibition curve. Read a low IC50 as inhibition by little substance. The Ki is a dissociation constant, usually derived from enzyme kinetics or from competition with a known ligand. Low values mean higher affinity, high ones lower affinity. Broadly, the CC50 is the concentration at which the toxic effect on the cells reaches its halfway point. Broadly, the EC50 is the midpoint of the concentration-response curve.
